Patent publication EP0174833A2, “Triazoloquinoline derivatives” (MAY & BAKER LIMITED, priority 1984, dated 1986)

system: lipoxygenase; test: lipoxygenase inhibition in vitro; assay type: biochemical; details: concentration 0.0001M, 100 µM

Going from `CCOC(=O)C(=CNc1ccc2c(c1)c(C)cc1nnc(-c3ccccc3)n12)C(=O)OCC` [A, 7-[2,2-bis(ethoxycarbonyl)ethen-l-ylamino]-5-methyl-1-phenyl-1,2,4-triazolo[4,3-a]quinoline] to `CCOC(=O)C(=CNc1ccc(-c2nnc3cc(C)c4ccccc4n23)cc1)C(=O)OCC` [E, 1-[4-{2,2-bis(ethoxycarbonyl)ethen-1-yl-amino}phenyl]-5-methyl-1,2,4-triazolo[4,3-a]-quinoline], the “% inhibition of lipoxygenase” value falls from 100% to 50%.

First: CCOC(=O)C(=CNc1ccc2c(c1)c(C)cc1nnc(-c3ccc(C)cc3)n12)C(=O)OCC [B, 7-[2,2-bis(ethoxycarbonyl)ethen-l-ylamino]-5-methyl-l-(4-methylphenyl)-1,2,4-triazolo-[4,3-a]quinoline]
Second: CCOC(=O)C(=CNc1ccc2c(c1)c(C)cc1nnc(-c3ccc(C(C)(C)C)cc3)n12)C(=O)OCC [D, 1-(4-tert-butylphenyl)-7-[2,2-bis(ethoxycarbonyl)ethen-1-ylamino)-5-methyl-1,2,4-triazolo[4,3-a]quinoline]
The “% inhibition of lipoxygenase” value of the first is higher: 100% for the first, 98% for the second.

system: mouse macrophage cells; test: reduction of the inhibition of migration of incubated macrophage cells after oral dosing (similar to Likhite et al.); assay type: in vivo; details: mice, twice administered orally, one hour before and four hours after antigen, dose each time that would reduce by 50% the inhibition of macrophage migration
Procedure: For example, from tests in mice it was calculated that compounds of formula I, when twice administered orally, one hour before and four hours after the administration of antigen, each time at the doses shown in the following Table I, would reduce by 50% the inhibition of migration of incubated mouse macrophage cells measured in a manner similar to that described by Likhite et al., Cellular Immunology, Vol. 5, 1972, page 377. This is a measure of antagonism or reduction of the levels of lymphokines and is indicative of utility in the treatment of arthritic patients.

`CCOC(=O)C(=CNc1ccc2c(c1)c(C)cc1nnc(-c3ccccc3)n12)C(=O)OCC` [A, 7-[2,2-bis(ethoxycarbonyl)ethen-l-ylamino]-5-methyl-1-phenyl-1,2,4-triazolo[4,3-a]quinoline] and `CCOC(=O)C(=CNc1ccc2c(c1)c(C)cc1nnc(-c3ccc(OC)cc3)n12)C(=O)OCC` [C, 7-[2,2-bis(ethoxycarbonyl)ethen-l-ylamino]-1-(4-methoxyphenyl)-5-methyl-1,2,4-triazolo-[4,3-a]quinoline] cannot be ordered by ED50: 7 mg/kg for the first, less than 10 mg/kg for the second.
